A short description of data set [1]: The drug is tested on Bifidobacterium longum subsp. Infantis strain: CCUG52486 for biotransformation. The drug concentrations were measured before and after a 12-h incubation by liquid-chromatography-coupled mass spectrometry (LC–MS). The conditions noted are these: 2 µM.
A short description of data set [2]: The drug is tested on Collinsella intestinalis strain: DSM13280 for biotransformation. The drug concentrations were measured before and after a 12-h incubation by liquid-chromatography-coupled mass spectrometry (LC–MS). Conditions: 2 µM.
The nature of data set [3]: The drug is tested on Bacteroides pectinophilus strain: ATCC43243 for biotransformation. The drug concentrations were measured before and after a 12-h incubation by liquid-chromatography-coupled mass spectrometry (LC–MS). Conditions: 2 µM.
The nature of data set [4]: The drug is tested on Bacteroides vulgatus strain: ATCC8482 for biotransformation. The drug concentrations were measured before and after a 12-h incubation by liquid-chromatography-coupled mass spectrometry (LC–MS). Conditions: phocaeicola vulgatus, 2 µM.
A short description of data set [5]: The drug is tested on Bacteroides xylanisolvens strain: DSM18836 for biotransformation. The drug concentrations were measured before and after a 12-h incubation by liquid-chromatography-coupled mass spectrometry (LC–MS). Conditions: 2 µM.
The nature of data set [6]: The drug is tested on Parabacteroides merdae strain: ATCC43184 for biotransformation. The drug concentrations were measured before and after a 12-h incubation by liquid-chromatography-coupled mass spectrometry (LC–MS). Conditions: 2 µM.
A short description of data set [7]: The drug is tested on Anaerotruncus colihominis strain: DSM17241 for biotransformation. The drug concentrations were measured before and after a 12-h incubation by liquid-chromatography-coupled mass spectrometry (LC–MS). The conditions noted are these: 2 µM.
Data set [8] can be described thus: The drug is tested on Clostridium asparagiforme strain: DSM15981 for biotransformation. The drug concentrations were measured before and after a 12-h incubation by liquid-chromatography-coupled mass spectrometry (LC–MS). It is filed as ADME. Also noted: dose 2 uM, timepoint 0 vs 12 hours. Conditions: enterocloster asparagiformis, 2 µM.
Data set [9] can be described thus: The drug is tested on Clostridium scindens strain: ATCC35704 for biotransformation. The drug concentrations were measured before and after a 12-h incubation by liquid-chromatography-coupled mass spectrometry (LC–MS). Conditions: 2 µM.
Data set [10] can be described thus: The drug is tested on Ruminococcus lactaris strain: ATCC29176 for biotransformation. The drug concentrations were measured before and after a 12-h incubation by liquid-chromatography-coupled mass spectrometry (LC–MS). Conditions: 2 µM.
Data set [11] can be described thus: The drug is tested on Providencia rettgeri strain: DSM1131 for biotransformation. The drug concentrations were measured before and after a 12-h incubation by liquid-chromatography-coupled mass spectrometry (LC–MS). In kind it is ADME. Also noted: dose 2 uM, timepoint 0 vs 12 hours. Conditions: 2 µM.
The conditions of data set [12]: bacteroides eggerthii, 12 h, 2 µM.
Description: The drug is tested on Bacteroides eggerthii strain: DSM20697 for biotransformation. The drug concentrations were measured before and after a 12-h incubation by liquid-chromatography-coupled mass spectrometry (LC–MS)
For data set [13] the following is noted: bacteroides fragilis, 12 h, 2 µM.
Description: The drug is tested on Bacteroides fragilis strain: NCTC 9343 for biotransformation. The drug concentrations were measured before and after a 12-h incubation by liquid-chromatography-coupled mass spectrometry (LC–MS)
The conditions of data set [14]: bacteroides fragilis, 12 h, 2 µM. This is another data set of the same source.
Description: The drug is tested on Bacteroides fragilis strain: DS-208 for biotransformation. The drug concentrations were measured before and after a 12-h incubation by liquid-chromatography-coupled mass spectrometry (LC–MS)
The conditions of data set [15]: bacteroides intestinalis, 12 h, 2 µM.
Description: The drug is tested on Bacteroides intestinalis strain: DSM17393 for biotransformation. The drug concentrations were measured before and after a 12-h incubation by liquid-chromatography-coupled mass spectrometry (LC–MS)
The conditions of data set [16]: bacteroides stercoris, 12 h, 2 µM.
Description: The drug is tested on Bacteroides stercoris strain: ATCC43183 for biotransformation. The drug concentrations were measured before and after a 12-h incubation by liquid-chromatography-coupled mass spectrometry (LC–MS)
For data set [17] the following is noted: bacteroides thetaiotaomicron, 12 h, 2 µM.
Description: The drug is tested on Bacteroides thetaiotaomicron strain: VPI-5482 for biotransformation. The drug concentrations were measured before and after a 12-h incubation by liquid-chromatography-coupled mass spectrometry (LC–MS)
The conditions of data set [18]: bacteroides thetaiotaomicron, 12 h, 2 µM. This is another data set of the same source.
Description: The drug is tested on Bacteroides thetaiotaomicron strain: 3731 for biotransformation. The drug concentrations were measured before and after a 12-h incubation by liquid-chromatography-coupled mass spectrometry (LC–MS)
For data set [19] the following is noted: bacteroides thetaiotaomicron, 12 h, 2 µM. The source holds these as a separate data set.
Description: The drug is tested on Bacteroides thetaiotaomicron strain: 7330 for biotransformation. The drug concentrations were measured before and after a 12-h incubation by liquid-chromatography-coupled mass spectrometry (LC–MS)
For data set [20] the following is noted: parabacteroides johnsonii, 12 h, 2 µM.
Description: The drug is tested on Parabacteroides johnsonii strain: DSM18315 for biotransformation. The drug concentrations were measured before and after a 12-h incubation by liquid-chromatography-coupled mass spectrometry (LC–MS)

From ChEMBL document CHEMBL5303573, “Mapping human microbiome drug metabolism by gut bacteria and their genes” (Nature, 2019) come the findings set out here.

The structures appear in SMILES notation.

As to `CC(=O)OCC(=O)[C@@]1(OC(C)=O)[C@@H](C)C[C@H]2[C@@H]3C[C@H](F)C4=CC(=O)C=C[C@]4(C)[C@@]3(F)[C@@H](O)C[C@@]21C` [DIFLORASONE DIACETATE], the “Bacterial Biotransformation” value in data set [1] is “Compound metabolized”; in [2], “Compound NOT metabolized”; in data set [3], “Compound NOT metabolized”; in data set [4], “Compound metabolized”; in data set [5], “Compound metabolized”; in data set [6], “Compound metabolized”. Moreover, the “Bacterial Biotransformation” value in data set [7] is “Compound metabolized”; in [8] it was “Compound metabolized”; in [9], “Compound NOT metabolized”; in data set [10], “Compound NOT metabolized”; in data set [11], “Compound metabolized”; in [12] it was “Compound metabolized”. In addition, the “Bacterial Biotransformation” value in data set [13], in data set [14], in data set [15], in [16], in data set [17] and in data set [18] was “Compound metabolized” in each case. Besides, the “Bacterial Biotransformation” value in data set [19] and in [20] was “Compound metabolized” each time.

Take `CCN(CC)C(=O)C1(c2ccccc2)CC1CN` (stereo not given): the “Bacterial Biotransformation” value in data set [1], in data set [2], in [3], in data set [4], in [5] and in data set [6] was “Compound NOT metabolized” each time. The “Bacterial Biotransformation” value in data set [7], in [8], in data set [9], in data set [10], in data set [11] and in data set [12] was “Compound NOT metabolized” in each case. In addition, the “Bacterial Biotransformation” value in data set [13], in [14], in [15], in [16], in data set [17] and in data set [18] was “Compound NOT metabolized” in each case. The “Bacterial Biotransformation” value in data set [19] and in data set [20] was “Compound NOT metabolized” throughout.

Consider `COc1ccccc1N1CCN(CC(O)COc2cccc3ccccc23)CC1` (stereo not given) [NAFTOPIDIL], for which the “Bacterial Biotransformation” value in [1], in [2], in [3], in [4], in data set [5] and in [6] was “Compound NOT metabolized” each time. The “Bacterial Biotransformation” value in data set [7], in [8], in [9], in [10], in data set [11] and in [12] was “Compound NOT metabolized” each time. The “Bacterial Biotransformation” value in data set [13], in data set [14], in data set [15], in data set [16], in data set [17] and in data set [18] was “Compound NOT metabolized” throughout. Besides, the “Bacterial Biotransformation” value in [19] and in [20] was “Compound NOT metabolized” throughout.

As to `O=C(O)CCc1nc(-c2ccccc2)c(-c2ccccc2)o1` [OXAPROZIN], the “Bacterial Biotransformation” value in [1] is given as “Compound NOT metabolized”; in data set [2], “Compound NOT metabolized”; in data set [3], “Compound NOT metabolized”; in [4] it was “Compound metabolized”; in [5], “Compound metabolized”; in data set [6], “Compound NOT metabolized”. For the same compound, the “Bacterial Biotransformation” value in [7] is “Compound NOT metabolized”; in data set [8], “Compound metabolized”; in data set [9] it was “Compound NOT metabolized”; in data set [10], “Compound NOT metabolized”; in data set [11] it was “Compound NOT metabolized”; in data set [12], “Compound NOT metabolized”. In addition, the “Bacterial Biotransformation” value in data set [13] is recorded as “Compound metabolized”; in data set [14], “Compound metabolized”; in data set [15], “Compound metabolized”; in data set [16] it was “Compound NOT metabolized”; in [17], “Compound metabolized”; in data set [18], “Compound metabolized”. Besides, the “Bacterial Biotransformation” value in data set [19] and in data set [20] was “Compound metabolized” each time.

In the case of `C[C@H]1O[C@@H](O[C@H]2[C@@H](O)C[C@H](O[C@H]3[C@@H](O)C[C@H](O[C@H]4CC[C@@]5(C)[C@H](CC[C@@H]6[C@@H]5C[C@@H](O)[C@]5(C)[C@@H](C7=CC(=O)OC7)CC[C@]65O)C4)O[C@@H]3C)O[C@@H]2C)C[C@H](O)[C@@H]1O` [DIGOXIN], the “Bacterial Biotransformation” value in data set [1] was “Compound NOT metabolized”; in data set [2], “Compound NOT metabolized”; in [3] it was “Compound NOT metabolized”; in data set [4] it was “Compound metabolized”; in data set [5], “Compound metabolized”; in data set [6], “Compound metabolized”. Moreover, the “Bacterial Biotransformation” value is “Compound NOT metabolized” in data set [7]; “Compound NOT metabolized” in data set [8]; “Compound NOT metabolized” in data set [9]; “Compound NOT metabolized” in [10]; “Compound NOT metabolized” in data set [11]; “Compound metabolized” in data set [12]. The “Bacterial Biotransformation” value is on record as “Compound NOT metabolized” in data set [13]; “Compound metabolized” in data set [14]; “Compound NOT metabolized” in data set [15]; “Compound metabolized” in [16]; “Compound metabolized” in [17]; “Compound NOT metabolized” in data set [18]. Also, the “Bacterial Biotransformation” value in data set [19] and in data set [20] was “Compound metabolized” throughout.
